Here are results for three compounds from patent publication US20110082171A1, “Medicaments and Methods for Inhibition of Scarring” (Renovo Limited, priority 2008, published 2011).

Test [1] deals with scarring resulting from full thickness cutaneous incisional wounds. Nature of the test: Rat incisional wound scarring model, macroscopic VAS assessment of scars. Type of test: in vivo, male Sprague Dawley rats. The settings on record: day 70 post-wounding. The procedure:
(§1) The GABAA receptor agonist Gaboxadol hydrochloride (Sigma Aldrich, catalogue number T101) was diluted in phosphate buffered saline (PBS) to produce medicaments of the invention having the following concentrations:
(§2) i) 1.76 ng/100 μL (a concentration of 0.1 μM, in which each […] of the medicament provides 10 pmoles of Gaboxadol hydrochloride); ii) 1.76 μg/100 μL (a concentration of 100 μM, in which each 100 μl of the medicament provides 10 nmoles of Gaboxadol hydrochloride); and iii) 8.83 μg/100 μL (a concentration of 500 μM, in which each 100 μl of the medicament provides 50 nmoles of Gaboxadol hydrochloride).
(§3) At day 0, male Sprague Dawley rats (200-250 g) were anaesthetised, shaved and wound sites were marked according to a template in which two wounds, each 1 cm in length, were made at sites 5 cm from the base of the skull and 1 cm from the midline on the back of each rat.
(§4) One hundred microlitres of either one of the medicaments of the invention (comprising either 0.1 μM, 100 μM or 500 μM Gaboxadol hydrochloride in phosphate buffered saline pH 7.2—purchased from GIBCO BRL, Cat. # 20012-019), or placebo (PBS only) was injected intradermally at the wound sites. The intradermal injections caused the formation of a raised bleb, which was then immediately incised to form 1 cm long experimental wounds.
(§5) All treated or diluent control wounds were re-injected again 1 day post-wounding with the appropriate treatment (drug or placebo) via injection of 50 μl to each of the two margins of the 1 cm wound. All wounds were all harvested at day 70 post-wounding.
The wounds were photographed after wounding, prior to re-injection on day 1 and on day of harvest. The scars were assessed using a visual analogue scale (VAS) consisting of a 0-10 cm line representing a scale, from left to right, of 0 (corresponding to normal skin) to 10 (indicative of a bad scar).

Test [2] shares this test system. Nature of the test: Rat incisional wound scarring model, microscopic assessment of scars (Masson's trichrome). It counts as in vivo, male Sprague Dawley rats. Particulars: day 70 post-wounding. The method, then:
as §1, §2, §3, §4, §5
For microscopic assessment the scars were excised from the experimental rats (incorporating a small amount of surrounding normal tissue) and fixed in 10% (v/v) buffered formal saline. The fixed tissue was then processed for wax histology, stained using Masson's trichrome, and scarring in the regenerated dermis was assessed.

Test [3] addresses GABAA receptors containing α4β3δ subunits (Homo sapiens, UniProt P28472+P48169). The settings on record: Brown et al. 2002, cited from earlier work.
The subject of the next test is GABAA receptor. Particulars: relative to GABA; cited from earlier work.

Usually EC50 stands for the concentration needed to bring the measured effect to its halfway point.

“Also recorded” adds a separate entry of the source. Where a name gives a salt, the structure may show the parent alone.

GABAA receptors containing α4β3δ subunits, sequence (P48169 36-554): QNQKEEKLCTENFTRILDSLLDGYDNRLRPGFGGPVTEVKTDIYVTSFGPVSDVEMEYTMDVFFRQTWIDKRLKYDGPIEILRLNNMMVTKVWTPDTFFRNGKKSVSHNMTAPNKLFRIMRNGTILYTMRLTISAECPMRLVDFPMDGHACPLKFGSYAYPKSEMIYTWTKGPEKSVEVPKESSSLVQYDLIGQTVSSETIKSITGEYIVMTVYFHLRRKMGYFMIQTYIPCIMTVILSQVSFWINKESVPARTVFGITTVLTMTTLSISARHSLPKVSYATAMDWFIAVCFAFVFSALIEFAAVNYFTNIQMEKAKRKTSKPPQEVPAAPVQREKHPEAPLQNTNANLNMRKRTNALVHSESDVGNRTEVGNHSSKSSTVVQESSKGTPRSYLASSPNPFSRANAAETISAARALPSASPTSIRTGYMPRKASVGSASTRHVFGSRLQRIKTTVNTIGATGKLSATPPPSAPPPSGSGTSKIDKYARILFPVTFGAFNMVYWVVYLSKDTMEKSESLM
GABAA receptors containing α4β3δ subunits, sequence (P28472 26-473): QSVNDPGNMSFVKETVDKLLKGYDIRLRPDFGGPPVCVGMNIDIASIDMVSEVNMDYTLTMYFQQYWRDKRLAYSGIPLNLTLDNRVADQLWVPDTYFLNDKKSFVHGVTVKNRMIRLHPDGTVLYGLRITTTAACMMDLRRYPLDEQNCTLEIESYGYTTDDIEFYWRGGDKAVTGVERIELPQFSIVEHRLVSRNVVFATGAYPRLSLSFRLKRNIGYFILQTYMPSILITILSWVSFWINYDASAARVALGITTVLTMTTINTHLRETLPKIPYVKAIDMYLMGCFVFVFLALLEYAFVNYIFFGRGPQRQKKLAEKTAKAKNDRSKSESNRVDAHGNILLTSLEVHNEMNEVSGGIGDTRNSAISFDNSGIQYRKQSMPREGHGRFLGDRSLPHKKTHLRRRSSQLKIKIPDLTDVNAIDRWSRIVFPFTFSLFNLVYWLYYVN
GABAA receptors containing α4β3δ subunits, sequence (O14764 25-452 partner): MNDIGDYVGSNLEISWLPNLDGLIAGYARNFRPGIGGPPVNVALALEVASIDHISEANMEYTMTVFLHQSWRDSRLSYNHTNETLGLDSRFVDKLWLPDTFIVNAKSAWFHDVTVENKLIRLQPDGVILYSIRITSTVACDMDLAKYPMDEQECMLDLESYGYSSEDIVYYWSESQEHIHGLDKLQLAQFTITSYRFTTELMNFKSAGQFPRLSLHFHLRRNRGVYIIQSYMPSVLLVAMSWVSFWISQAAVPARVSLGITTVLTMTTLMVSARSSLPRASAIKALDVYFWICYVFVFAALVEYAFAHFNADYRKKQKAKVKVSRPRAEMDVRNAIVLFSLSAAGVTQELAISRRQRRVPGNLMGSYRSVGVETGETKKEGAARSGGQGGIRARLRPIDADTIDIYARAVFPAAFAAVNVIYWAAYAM

With `Oc1noc2c1CCNC2` [Gaboxadol hydrochloride], the “macroscopic appearance of scars (VAS) versus diluent control” value in test [1] (0.1 μM solution in PBS, two intradermal injections of 100 μl (1.76 ng per centimetre each)) is “improved the macroscopic appearance of scars; also recorded: statistically significant inhibition of scarring”; in test [1] (100 μM solution in PBS, two intradermal injections of 100 μl (1.76 μg per centimetre each)), “improved the macroscopic appearance of scars; also recorded: trend towards scar reduction”; in test [1] (500 μM solution in PBS, two intradermal injections of 100 μl (8.83 μg per centimetre each)), “improved the macroscopic appearance of scars”. Also, the scarring assessed microscopically in test [2] (0.1 μM solution in PBS), in test [2] (100 μM solution in PBS) and in test [2] (500 μM solution in PBS) was “reduction of scarring” each time.

For the compound `Oc1noc2c1CCNC2` [Gaboxadol, 4,5,6,7-tetrahydroisoxazolo[5,4-c]pyridine-3-ol], the EC50 in test [3] was 6 µM. Also, in test [3] (relative to GABA), the “maximum response (% of that of GABA)” value was 163%. Besides, the “affinity for GABAA receptors compared with GABA (in words)” value in the test on GABAA receptor is “affinity higher than that of GABA itself”.

As to `NCc1cc(=O)[nH]o1` [Muscimol, muscimol], the “affinity at the GABAA receptor, greater than GABA” value in the test on GABAA receptor is listed as 10 fold.
